Here are results for 31 compounds from patent publication US9884832B2 (priority 2011, dated 2018).

The first assay has as its target AM2 S31N (serine→asparagine mutation at residue 31 in the M2 protein) (Influenza A virus, UniProt P0DOF5, S31N). The class given is cell-based, influenza virus A/Udorn/72.
Conditions: not given
As for `c1ccc(-c2nc(CNC34CC5CC(CC(C5)C3)C4)no2)cc1` [Example 131a, N-((5-phenyl-1,2,4-oxadiazol-3-yl)methyl)adamantan-1-amine], the “S31N OOcyte Inhibition at 100 uM (%)” value was “A (key: (A)=31-95%; (B)=0-30%)”.

For the compound `Fc1ccc(-c2cc(CNC34CC5CC(CC(C5)C3)C4)no2)cc1` [Example 118a, N-((5-(4-fluorophenyl)isoxazol-3-yl)methyl)adamantan-1-amine], the “S31N OOcyte Inhibition at 100 uM (%)” value was “A (key: (A)=31-95%; (B)=0-30%)”.

`c1ccc(-c2nc(CNC34CC5CC(CC(C5)C3)C4)cs2)cc1` [Example 132a, N-((2-phenylthiazol-4-yl)methyl)adamantan-1-amine]: the “S31N OOcyte Inhibition at 100 uM (%)” value is given as “B (key: (A)=31-95%; (B)=0-30%)”.

Regarding `c1csc(-c2nnc(CNC34CC5CC(CC(C5)C3)C4)o2)c1` [Example 147a, Adamantan-1-yl-(5-thiophen-2-yl-[1,3,4]oxadiazol-2-ylmethyl)-amine], the “S31N OOcyte Inhibition at 100 uM (%)” value is reported as “A (key: (A)=31-95%; (B)=0-30%)”.

For the compound `OC12CC3CC(C1)CC(NCc1cc4cc(Br)sc4s1)(C3)C2` [Example 195a, 3-[(5-Bromo-thieno[2,3-b]thiophen-2-ylmethyl)-amino]-adamantan-1-ol], the “S31N OOcyte Inhibition at 100 uM (%)” value is “A (key: (A)=31-95%; (B)=0-30%)”.

For `C(NC12CC3CC(CC(C3)C1)C2)c1noc(C2CC2)n1` [Example 166a], the “S31N OOcyte Inhibition at 100 uM (%)” value was “A (key: (A)=31-95%; (B)=0-30%)”.

As to `c1csc(-c2noc(CNC34CC5CC(CC(C5)C3)C4)n2)c1` [Example 148a, N-((3-(thiophen-2-yl)-1,2,4-oxadiazol-5-yl)methyl)adamantan-1-amine], the “S31N OOcyte Inhibition at 100 uM (%)” value is “A (key: (A)=31-95%; (B)=0-30%)”.

Turning to `C[Si](C)(C)c1ccc(CNC23CC4CC(CC(O)(C4)C2)C3)cc1` [Example 193a, (1s,3r,5R,7S)-3-((4-(trimethylsilyl)benzyl)amino)adamantan-1-ol], the “S31N OOcyte Inhibition at 100 uM (%)” value is given as “A (key: (A)=31-95%; (B)=0-30%)”.

Take `Cc1ccc(CNC23CC4CC(CC(C4)C2)C3)c(O)c1` [Example 51a]: the “S31N OOcyte Inhibition at 100 uM (%)” value is reported as “A (key: (A)=31-95%; (B)=0-30%)”.

Take `FC(F)(F)c1cccc(-c2nc(CNC34CC5CC(CC(C5)C3)C4)no2)c1` [Example 130a, N-((5-(3-(trifluoromethyl)phenyl)-1,2,4-oxadiazol-3-yl)methyl)adamantan-1-amine]: the “S31N OOcyte Inhibition at 100 uM (%)” value is given as “A (key: (A)=31-95%; (B)=0-30%)”.

Consider `OC12CC3CC(C1)CC(NCc1ccc(Cl)s1)(C3)C2` [Example 189a, 3-[(5-Chloro-thiophen-2-ylmethyl)-amino]adamantan-1-ol], for which the “S31N OOcyte Inhibition at 100 uM (%)” value is reported as “B (key: (A)=31-95%; (B)=0-30%)”.

With `c1csc(-c2nnc(CNC34CC5CC(CC(C5)C3)C4)s2)c1` [Example 151a, N-((5-(thiophen-2-yl)-1,3,4-thiadiazol-2-yl)methyl)adamantan-1-amine], the “S31N OOcyte Inhibition at 100 uM (%)” value is listed as “A (key: (A)=31-95%; (B)=0-30%)”.

As to `c1nc(CNC23CC4CC(CC(C4)C2)C3)no1` [Example 73a, Adamantan-1-yl-[1,2,4]oxadiazol-3-ylmethyl-amine], the “S31N OOcyte Inhibition at 100 uM (%)” value is “A (key: (A)=31-95%; (B)=0-30%)”.

For `COc1ccc2[nH]c(CNC34CC5CC(CC(C5)C3)C4)cc2c1` [Example 182a], the “S31N OOcyte Inhibition at 100 uM (%)” value is listed as “A (key: (A)=31-95%; (B)=0-30%)”.

For the compound `c1ccc(-c2ncc(CNC34CC5CC(CC(C5)C3)C4)cn2)cc1` [Example 63a, N-((2-phenylpyrimidin-5-yl)methyl)adamantan-1-amine], the “S31N OOcyte Inhibition at 100 uM (%)” value is “A (key: (A)=31-95%; (B)=0-30%)”.

In the case of `Fc1ccc(-c2nc(CNC34CC5CC(CC(C5)C3)C4)no2)cc1` [Example 163a], the “S31N OOcyte Inhibition at 100 uM (%)” value is on record as “A (key: (A)=31-95%; (B)=0-30%)”.

Regarding `Oc1ccc(CNC23CC4CC(CC(O)(C4)C2)C3)c(O)c1` [Example 196a, 4-[(3-Hydroxy-adamantan-1-ylamino)-methyl]-benzene-1,3-diol], the “S31N OOcyte Inhibition at 100 uM (%)” value is on record as “A (key: (A)=31-95%; (B)=0-30%)”.

The same assay, now with this note: pH 5.5.
`CSc1ccccc1-c1ccc(CNC23CC4CC(CC(C4)C2)C3)cc1` [Example 66b, Adamantan-1-yl-(2′-methylsulfanyl-biphenyl-4-ylmethyl)-amine]: the “S31N OOcyte Inhibition at 100 uM (%)” value was “A (key: (A)=31-95%; (B)=0-30%)”.

For the compound `Cc1ncc(CNC23CC4CC(CC(C4)C2)C3)s1` [Example 16b, N-((2-methylthiazol-5-yl)methyl)adamantan-1-amine], the “S31N OOcyte Inhibition at 100 uM (%)” value is given as “B (key: (A)=31-95%; (B)=0-30%)”.

Regarding `c1cnc2[nH]c(CNC34CC5CC(CC(C5)C3)C4)nc2c1` [Example 82b, N-((3H-imidazo[4,5-b]pyridin-2-yl)methyl)adamantan-1-amine], the “S31N OOcyte Inhibition at 100 uM (%)” value is “A (key: (A)=31-95%; (B)=0-30%)”.

On to `c1ccc(-c2cnc(CNC34CC5CC(CC(C5)C3)C4)[nH]2)cc1` [Example 53b, N-((5-phenyl-1H-imidazol-2-yl)methyl)adamantan-1-amine], for which the “S31N OOcyte Inhibition at 100 uM (%)” value is listed as “A (key: (A)=31-95%; (B)=0-30%)”.

As for `c1nc(C2CCCCC2)ncc1CNC12CC3CC(CC(C3)C1)C2` [Example 61b, N-((2-cyclohexylpyrimidin-5-yl)methyl)adamantan-1-amine], the “S31N OOcyte Inhibition at 100 uM (%)” value is “A (key: (A)=31-95%; (B)=0-30%)”.

With `CSC(C)(C)Cc1cc(CNC23CC4CC(CC(C4)C2)C3)no1` [Example 46b, N-((5-(2-methyl-2-(methylthio)propyl)isoxazol-3-yl)methyl)adamantan-1-amine], the “S31N OOcyte Inhibition at 100 uM (%)” value was “A (key: (A)=31-95%; (B)=0-30%)”.

With `Clc1ccc(CNC23CC4CC(CC(C4)C2)C3)cc1` [Example 1b, N-(4-Chlorobenzyl)adamantan-1-amine], the “S31N OOcyte Inhibition at 100 uM (%)” value is “A (key: (A)=31-95%; (B)=0-30%)”.

For the compound `COc1ccsc1-c1cc(CNC23CC4CC(CC(C4)C2)C3)no1` [Example 44b, N-((5-(3-methoxythiophen-2-yl)isoxazol-3-yl)methyl)adamantan-1-amine], the “S31N OOcyte Inhibition at 100 uM (%)” value is “A (key: (A)=31-95%; (B)=0-30%)”.

On to `COc1ccccc1-c1ccc(CNC23CC4CC(CC(C4)C2)C3)nc1` [Example 69b, Adamantan-1-yl-[5-(2-methoxy-phenyl)-pyridin-2-ylmethyl]-amine], for which the “S31N OOcyte Inhibition at 100 uM (%)” value is given as “A (key: (A)=31-95%; (B)=0-30%)”.

As for `COCc1nc(CNC23CC4CC(CC(C4)C2)C3)no1` [Example 23b, N-((5-(methoxymethyl)-1,2,4-oxadiazol-3-yl)methyl)adamantan-1-amine], the “S31N OOcyte Inhibition at 100 uM (%)” value is reported as “A (key: (A)=31-95%; (B)=0-30%)”.

On to `c1csc(-c2ccc(CNC34CC5CC(CC(C5)C3)C4)nn2)c1` [Example 71b, Adamantan-1-yl-(6-thiophen-2-yl-pyridazin-3-ylmethyl)-amine], for which the “S31N OOcyte Inhibition at 100 uM (%)” value is “A (key: (A)=31-95%; (B)=0-30%)”.

As to `OC12CC3CC(C1)CC(NCc1noc(-c4ccccc4)n1)(C3)C2` [Example 84b, (1s,3r,5R,7S)-3-(((5-phenyl-1,2,4-oxadiazol-3-yl)methyl)amino)adamantan-1-61], the “S31N OOcyte Inhibition at 100 uM (%)” value was “A (key: (A)=31-95%; (B)=0-30%)”.

As for `OC12CC3CC(C1)CC(NCc1noc(C4CCCCC4)n1)(C3)C2` [Example 86b, (1s,3r,5R,7S)-3-(((5-cyclohexyl-1,2,4-oxadiazol-3-yl)methyl)amino)adamantan-1-ol], the “S31N OOcyte Inhibition at 100 uM (%)” value is “A (key: (A)=31-95%; (B)=0-30%)”.

Regarding `C1CCC(c2nc(CNC34CC5CC(CC(C5)C3)C4)no2)CC1` [Example 24b], the “S31N OOcyte Inhibition at 100 uM (%)” value is given as “A (key: (A)=31-95%; (B)=0-30%)”.
